For orientation: EC50 means the midpoint of the concentration-response curve.

SMILES strings stand for the structures.

The test can be described thus: Inhibition HCV RNA replication.
In turn, `CO[C@@H]1[C@H](O)[C@@H](CO)O[C@H]1n1cnc2c(N)ncnc21` had an EC50 above 50 µM.
In turn, `C[C@@]1(O)[C@@H](CO)O[C@@H](n2cnc3c(N)ncnc32)[C@@H]1O` had an EC50 above 50 µM.
For `Nc1nc2c(ncn2[C@@H]2O[C@H](CO)[C@H](O)[C@H]2O)c(=O)[nH]1` the value was above 50 µM.
For `C[C@]1(O)[C@@H](CO)O[C@@H](n2cnc3c(N)ncnc32)[C@@H]1O` the value was above 50 µM; for `Nc1nc2c(ncn2[C@@H]2O[C@H](CO)[C@@H](O)[C@H]2F)c(=O)[nH]1` [2-Amino-9-((2R,3R,4R,5R)-3-fluoro-4-hydroxy-5-hydroxymethyl-tetrahydro-furan-2-yl)-1,9-dihydro-purin-6-one], above 50 µM.
With `CO[C@@H]1[C@H](O)[C@@H](CO)O[C@H]1n1cnc2c(=O)[nH]c(N)nc21` [2-Amino-9-((2R,3R,4R,5R)-4-hydroxy-5-hydroxymethyl-3-methoxy-tetrahydro-furan-2-yl)-1,9-dihydro-purin-6-one], the EC50 was above 50 µM.
`Nc1nc2c(ncn2[C@@H]2O[C@H](CO)C[C@H]2O)c(=O)[nH]1` [2-Amino-9-((2R,3R,5S)-3-hydroxy-5-hydroxymethyl-tetrahydro-furan-2-yl)-1,9-dihydro-purin-6-one] registered an EC50 of 50 µM.
For `Nc1nc2c(ncn2[C@@H]2O[C@H](CO)[C@@H](F)[C@H]2O)c(=O)[nH]1` [2-Amino-9-((2R,3S,4S,5R)-4-fluoro-3-hydroxy-5-hydroxymethyl-tetrahydro-furan-2-yl)-1,9-dihydro-purin-6-one] the value was above 50 µM; for `C[C@@]1(O)[C@H](O)[C@@H](CO)O[C@H]1n1cnc2c(N)nc(N)nc21` [(2R,3R,4R,5R)-2-(2,6-diamino-9H-purin-9-yl)-5-(hydroxymethyl)-3-methyloxolane-3,4-diol], 7 µM.
The result for `C[C@@]1(O)[C@H](O)[C@@H](CO)O[C@H]1n1cnc2cnc(N)nc21` [(2R,3R,4R,5R)-2-(2-amino-9H-purin-9-yl)-5-(hydroxymethyl)-3-methyloxolane-3,4-diol] reads above 50 µM.
The result for `CC[C@@]1(O)[C@H](O)[C@@H](CO)O[C@H]1n1cnc2c(N)ncnc21` [(2R,3R,4R,5R)-2-(6-amino-9H-purin-9-yl)-3-ethyl-5-(hydroxymethyl)oxolane-3,4-diol] reads above 50 µM; that for `C[C@@]1(O)[C@H](O)[C@@H](CO)O[C@H]1n1cnc2c(N)ncnc21` [(2R,3R,4R,5R)-2-(6-amino-9H-purin-9-yl)-5-(hydroxymethyl)-3-methyl-tetrahydrofuran-3,4-diol], 0.3 µM; that for `C[C@@]1(O)[C@H](O)[C@@H](CO)O[C@H]1n1cnc2c(=O)[nH]cnc21` [(2R,3R,4R,5R)-2-(6-hydroxy-9H-purin-9-yl)-5-(hydroxymethyl)-3-methyloxolane-3,4-diol], above 50 µM.
For `CO[C@]1(C)[C@H](O)[C@@H](CO)O[C@H]1n1cnc2c(N)ncnc21` [(2R,3R,4R,5R)-5-(6-amino-9H-purin-9-yl)-2-(hydroxymethyl)-4-methoxy-4-methyloxolan-3-ol], the EC50 was above 50 µM.
The result for `C[C@@]1(O)[C@H](O)[C@@H](CO)O[C@H]1n1cnc2cncnc21` [(2R,3R,4R,5R)-5-(hydroxymethyl)-3-methyl-2-(9H-purin-9-yl)oxolane-3,4-diol] reads above 50 µM; that for `C[C@]1(O)[C@H](O)[C@@H](CO)O[C@H]1n1cnc2c(N)ncnc21` [(2R,3S,4R,5R)-2-(6-amino-9H-purin-9-yl)-5-(hydroxymethyl)-3-methyloxolane-3,4-diol], above 50 µM.
The molecule `Nc1ncnc2c1ncn2[C@@H]1O[C@H](CO)[C@@H](O)[C@@H]1O` [adenine arabinoside] registered an EC50 above 50 µM.
